Source: US8759512B2, “Methods of preparation of macrocyclic compounds” (University of Florida Research Foundation, Inc., priority 2008, dated 2014)

Key:
[1] = test system: HeLa nuclear extract HDACs (class I HDACs 1, 2, and 3); test: HeLa nuclear extract HDAC inhibition; format: biochemical; details: HeLa cell nuclear protein extract
Excerpt: Largazole (21) inhibited HDAC activity from a HeLa cell nuclear protein extract rich in class I HDACs 1, 2, and 3 (BIOMOL); however, it is possible that the thioester is cleaved under assay conditions. To investigate that thiol 29 is a reactive species, we liberated 29 from the acetyl analog 28 of largazole (21) and measured enzymatic activity directly; thiol […] inhibited the HDACs in the nuclear extract of HeLa cells with a similar IC50 value (Table 3).

HDAC = test: HCT-116 HDAC cellular assay (Fluor de Lys substrate); format: cell-based; details: HCT-116, 8 h, fluorogenic HDAC substrate
HCT-116 cells = test: HCT-116 growth inhibition; format: cell-based
NIH3T3 cells = format: cell-based; details: NIH3T3, 48 h, MTT
Description: Cell culture medium was purchased from Invitrogen and fetal bovine serum (FBS) from Hyclone. Cells were propagated and maintained in DMEM medium (high glucose) supplemented with 10% FBS at 37° C. humidified air and 5% CO2.
Cells suspended in DMEM containing 10% FBS were plated in 96-well plates (MDA-MB-231: 12,000 cells; NMuMG: 5,000 cells; U2OS: 5,000 cells; HT29: 10,000 cells; IMR-32: 30,000 cells; NIH3T3: 5,000 cells) incubated (37° C., 5% CO2) and 24 h later treated with various concentrations of compound 21 or solvent control (1% EtOH). After another 48 h of incubation, cell viability was measured using MTT according to manufacturer's instructions (Promega).
MDA-MB-231 and NMuMG cells were also treated with paclitaxel (in DMSO), actinomycin D (in DMSO) and doxorubicin (in H2O) and corresponding solvent control (1%) in the same manner. GI50 and LC50 values were calculated as previously described (K. D. Paull, E. Hamel, L. Malspeis, In Cancer Chemotherapeutic Agents, W. E. Foye, Ed., American Chemical Society, Washington, D.C., 1995, pp. 10-11).
[formula] [T=absorbance in treated wells (48 h); T0=absorbance at time zero; C=absorbance in control wells (48 h)]

SMILES | IC50 [1] [µM] | IC50 (HDAC) [µM] | GI50 (HCT-116 cells) [µM] | toxicity (cytotoxicity) (NIH3T3 cells)
CC(=O)SCC/C=C/[C@@H]1CC(=O)NCc2nc(cs2)C2=N[C@@](C)(CS2)C(=O)N[C@@H](C(C)C)C(=O)O1 [Compound 28] | 0.052 ± 0.027 | 0.05 ± 0.018 | 0.033 ± 0.002 | 
CCCCCCCC(=O)SCC/C=C/[C@@H]1CC(=O)NCc2nc(cs2)C2=N[C@@](C)(CS2)C(=O)N[C@@H](C(C)C)C(=O)O1 [Compound 21, Largazole] |  |  |  | no apparent toxicity
